Each block holds one compound with its values, some of them ahead of it. Calls of active or inactive are those of the source.
Columns and labels:
[1] = target: Dual specificity protein phosphatase 3 (Homo sapiens, UniProt P51452); assay: VHR phosphatase inhibition, dose response, selectivity assay for STEP inhibitor project, biochemical (AID 602374); format: functional; settings: read-out: IC50_Mean
[2] = target: Tyrosine-protein phosphatase non-receptor type 5 (Homo sapiens, UniProt P54829); assay: STEP phosphatase inhibitors, confirmation, biochemical, fluorescence intensity, uHTS hits (AID 602372); format: functional; settings: read-out: IC50_Mean
[3] = target: T1, Small ubiquitin-related modifier 1 (Homo sapiens, UniProt P63165); assay: inhibitors of SUMO1 partner interactions, dose response, biochemical, FRET (AID 624383); format: functional; settings: read-out: IC50_Mean
Albumin = Albumin (Bos taurus, UniProt P02769); assay: Counterscreen for inhibitors of T-cell receptor (TCR)-CD3 interaction: Fluorescence-based biochemical high throughput dose response assay to identify inhibitors of T-cell receptor (TCR)-CD3 interaction using a TAMRA-labeled BSA probe.; format: functional
[4] = target: T1, Small ubiquitin-related modifier 1; assay: inhibitors of SUMO1 peptide binding, dose response, biochemical, fluorescence polarization, uHTS hits (AID 624382); format: functional; settings: read-out: IC50_Mean
[5] = target: Tyrosine-protein phosphatase non-receptor type 11 (Homo sapiens, UniProt Q06124); assay: SHP2 phosphatase inhibition, dose response, selectivity assay for STEP inhibitor project, biochemical (AID 602367); format: functional; settings: read-out: IC50_Mean
[6] = target: DNA (cytosine-5)-methyltransferase 1 (Homo sapiens, UniProt P26358); assay: DNMT1 methyltransferase inhibitors, confirmation, biochemical, fluorescent molecular beacon (AID 602386); format: functional
[7] = inhibitors of TNFa-stimulated NF-kB luciferase reporter, dose response, selectivity assay for EBV LMP1 NF-kB inhibitor project, HEK293 LMP1 reporter cells, dry powder, set 2 (AID 624369); format: functional
[8] = miR-122 activators in hepatoma reporter cells, dose response, cell-based, Huh7 psiCHECK-miR122, Renilla luciferase, cherry-picked (AID 651956); format: functional;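 note: huh7 hepatoma cells stably carrying a psiCHECK-2 miR-122 sensor plasmid; renilla luciferase signal reporting endogenous miR-122 activity after 48 h compound exposure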
Caspase-6 = target: T2, Caspase-6 (Homo sapiens, UniProt P55212); assay: human caspase-6 inhibitors, dose response, biochemical, VEID-R110 fluorescence, cherry-pick (AID 720632)
T2 sequence (P55212 whole entry): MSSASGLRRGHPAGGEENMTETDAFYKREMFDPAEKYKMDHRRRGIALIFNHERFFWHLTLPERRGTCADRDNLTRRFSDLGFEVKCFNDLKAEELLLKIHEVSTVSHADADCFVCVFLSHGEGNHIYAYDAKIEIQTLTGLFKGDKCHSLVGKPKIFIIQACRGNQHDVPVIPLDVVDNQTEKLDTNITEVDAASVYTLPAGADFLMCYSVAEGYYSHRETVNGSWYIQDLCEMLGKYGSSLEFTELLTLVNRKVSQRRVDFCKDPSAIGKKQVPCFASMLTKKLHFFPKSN

[9] = target: Low molecular weight phosphotyrosine protein phosphatase (Homo sapiens, UniProt P24666); format: functional; settings: read-out: IC50_Mean;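 note: Dose-response confirmation assay measuring inhibition of LMPTP enzyme activity by fluorescence intensity read-out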
Caspase-7 = Caspase-7 (Homo sapiens, UniProt P55210); assay: human caspase-7 inhibitors, dose response, selectivity assay for caspase-6 inhibitor project, biochemical, DEVD-R110 fluorescence, cherry-pick (AID 743295)
A549 = assay: A549 cell toxicity, dose response, cytotoxicity control, plate reader, cherry-pick samples (AID 687028); format: functional, cell-based; settings: Homo sapiens
[10] = NIH3T3 fibroblast cytotoxicity, dose response, cytotoxicity control for PglD inhibitor project, cell-based, CellTiter-Glo luminescence, dry powder (AID 652044); format: functional
[11] = lymphoblastoid cell cytotoxicity, dose response, cytotoxicity control, plate reader, dry powder, set 2 (AID 624367); format: functional
[12] = Cytotoxicity screening for potential Inhibitors of Bacterial Capsule Biogenesis (4).; format: functional
Cryptococcus neoformans [13] = assay: PubChem AID 686997; format: functional, organism-based
HeLa = assay: HeLa cell cytotoxicity, dose response, cytotoxicity control, ATP luminescence, cherry-pick samples (AID 687004); format: functional, cell-based; settings: Homo sapiens
[14] = C. albicans growth with fluconazole, confirmation, fluorescence, retest (AID 2467); format: functional, cell-based
[15] = cytotoxicity toward NIH3T3 fibroblasts, dose response, counter-screen, cell-based, ATP luminescence, mouse fibroblasts (AID 2010); format: functional;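 note: cells exposed to compound for about 90 hours before reading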
Cryptococcus neoformans [16] = assay: Cryptococcus growth inhibition by alamar blue – cell lysis, cherry-picks, replicate tests, mechanism study for C. neoformans antifungal project, dose response (AID 686999); format: functional, organism-based
[17] = NIH-3T3 fibroblast cytotoxicity, dose response, cytotoxicity control, cell-based, fluorescence, Alamar Blue, secondary assay (AID 2327); format: functional;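 note: NIH-3T3 mouse fibroblasts cultured with fluconazole at 8 µg/mL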
[18] = inhibitors of intracellular T. cruzi replication, confirmation, NIH3T3 host cells, beta-gal luminescence (AID 2044); format: functional, cell-based;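 note: intracellular parasites grown in NIH/3T3 mouse fibroblasts as host cells; luminescent beta-galactosidase reporter signal from transgenic T. cruzi replicating inside host cells; inhibitors lower the luminescence signal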
Leucine aminopeptidase = target: T3, Leucine aminopeptidase (Plasmodium falciparum 3D7, UniProt Q8IL11); assay: P. falciparum M17LAP inhibitors, primary screen, biochemical, fluorogenic H-Leu-NHMec substrate, 1536-well (AID 1619); format: functional
T3 sequence (Q8IL11 whole entry): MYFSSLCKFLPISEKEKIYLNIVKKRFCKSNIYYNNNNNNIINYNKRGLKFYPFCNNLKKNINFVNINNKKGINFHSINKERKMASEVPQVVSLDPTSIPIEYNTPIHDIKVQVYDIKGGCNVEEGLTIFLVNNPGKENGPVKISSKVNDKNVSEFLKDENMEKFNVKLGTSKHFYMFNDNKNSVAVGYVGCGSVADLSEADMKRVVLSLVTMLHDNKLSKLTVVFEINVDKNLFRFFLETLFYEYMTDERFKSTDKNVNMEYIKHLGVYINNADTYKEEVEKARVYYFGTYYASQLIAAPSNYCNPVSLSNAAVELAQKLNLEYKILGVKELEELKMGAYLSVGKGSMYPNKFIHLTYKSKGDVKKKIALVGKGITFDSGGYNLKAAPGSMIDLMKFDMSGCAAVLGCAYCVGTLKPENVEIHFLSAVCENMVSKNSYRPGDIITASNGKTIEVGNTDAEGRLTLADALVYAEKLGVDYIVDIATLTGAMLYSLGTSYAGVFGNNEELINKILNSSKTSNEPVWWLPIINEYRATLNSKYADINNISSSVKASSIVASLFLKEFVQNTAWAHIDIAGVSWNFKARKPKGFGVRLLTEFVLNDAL

cells = format: functional, cell-based
[19] = target: T4, Probable nicotinate-nucleotide adenylyltransferase (Staphylococcus aureus (strain N315), UniProt P65502); format: functional, Staphylococcus aureus subsp. aureus N315;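 for IC50 Mean: confirmatory dose-response retesting of NadD inhibitor hits first found in an ultra-high-throughput screen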
[20] = target: T4, Probable nicotinate-nucleotide adenylyltransferase; format: functional, Staphylococcus aureus subsp. aureus N315; settings: read-out: IC50_Mean

T1 sequence (P63165 whole entry): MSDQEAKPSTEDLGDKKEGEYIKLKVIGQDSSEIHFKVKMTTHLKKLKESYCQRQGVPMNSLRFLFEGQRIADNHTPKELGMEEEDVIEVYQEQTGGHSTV
Chain of Caspase-7 (P55210 24-198 limits assumed): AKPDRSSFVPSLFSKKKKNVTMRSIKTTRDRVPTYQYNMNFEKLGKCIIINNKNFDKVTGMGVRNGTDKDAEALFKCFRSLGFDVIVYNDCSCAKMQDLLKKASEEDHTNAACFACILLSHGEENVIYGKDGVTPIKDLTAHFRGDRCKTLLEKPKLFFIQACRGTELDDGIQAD
Chain of Caspase-7 (P55210 207-303 limits assumed): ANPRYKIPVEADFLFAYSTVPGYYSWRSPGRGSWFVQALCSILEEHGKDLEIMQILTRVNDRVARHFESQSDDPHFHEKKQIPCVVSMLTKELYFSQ
Chain of Albumin (P02769 whole entry): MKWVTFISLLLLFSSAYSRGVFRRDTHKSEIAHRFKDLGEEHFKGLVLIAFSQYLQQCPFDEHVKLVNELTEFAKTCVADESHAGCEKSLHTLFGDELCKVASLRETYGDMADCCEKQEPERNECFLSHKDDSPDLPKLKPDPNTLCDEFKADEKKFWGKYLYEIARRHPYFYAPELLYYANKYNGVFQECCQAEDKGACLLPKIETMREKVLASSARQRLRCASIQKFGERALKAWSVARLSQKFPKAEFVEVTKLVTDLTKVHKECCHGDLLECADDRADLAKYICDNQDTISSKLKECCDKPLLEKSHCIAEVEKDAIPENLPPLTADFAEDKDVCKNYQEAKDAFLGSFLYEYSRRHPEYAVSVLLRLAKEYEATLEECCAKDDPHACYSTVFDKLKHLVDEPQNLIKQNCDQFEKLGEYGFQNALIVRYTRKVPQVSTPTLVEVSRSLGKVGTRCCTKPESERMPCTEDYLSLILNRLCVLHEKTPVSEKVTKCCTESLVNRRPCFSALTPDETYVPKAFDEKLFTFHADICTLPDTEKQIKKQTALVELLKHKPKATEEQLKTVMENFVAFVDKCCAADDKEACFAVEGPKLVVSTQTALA
Chain of Tyrosine-protein phosphatase non-receptor type 5 (P54829 whole entry): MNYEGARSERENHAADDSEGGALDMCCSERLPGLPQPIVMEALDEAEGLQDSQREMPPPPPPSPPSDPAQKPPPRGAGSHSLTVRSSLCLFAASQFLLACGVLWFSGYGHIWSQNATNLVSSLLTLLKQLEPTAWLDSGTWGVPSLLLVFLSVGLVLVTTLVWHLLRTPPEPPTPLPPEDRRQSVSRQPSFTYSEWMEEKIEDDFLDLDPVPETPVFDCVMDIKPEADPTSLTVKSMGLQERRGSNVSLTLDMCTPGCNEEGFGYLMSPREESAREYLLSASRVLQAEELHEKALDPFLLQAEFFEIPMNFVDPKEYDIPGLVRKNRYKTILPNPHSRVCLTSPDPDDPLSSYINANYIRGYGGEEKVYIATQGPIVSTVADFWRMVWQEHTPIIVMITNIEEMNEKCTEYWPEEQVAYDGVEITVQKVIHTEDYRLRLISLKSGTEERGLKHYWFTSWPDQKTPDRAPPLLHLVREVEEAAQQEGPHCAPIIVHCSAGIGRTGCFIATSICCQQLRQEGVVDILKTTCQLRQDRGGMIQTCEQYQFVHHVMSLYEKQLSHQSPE
Chain of Dual specificity protein phosphatase 3 (P51452 whole entry): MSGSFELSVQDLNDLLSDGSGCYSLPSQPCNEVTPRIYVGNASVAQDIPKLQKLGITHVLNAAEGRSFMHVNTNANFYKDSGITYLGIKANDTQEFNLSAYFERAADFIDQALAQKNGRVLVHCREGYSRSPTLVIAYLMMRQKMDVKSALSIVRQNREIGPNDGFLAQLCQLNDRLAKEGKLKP
Chain of Low molecular weight phosphotyrosine protein phosphatase (P24666 whole entry): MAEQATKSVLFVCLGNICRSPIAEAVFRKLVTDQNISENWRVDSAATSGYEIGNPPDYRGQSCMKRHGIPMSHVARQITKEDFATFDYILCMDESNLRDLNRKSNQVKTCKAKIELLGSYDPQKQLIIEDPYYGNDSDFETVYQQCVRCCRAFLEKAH
Chain of DNA (cytosine-5)-methyltransferase 1 (P26358 whole entry): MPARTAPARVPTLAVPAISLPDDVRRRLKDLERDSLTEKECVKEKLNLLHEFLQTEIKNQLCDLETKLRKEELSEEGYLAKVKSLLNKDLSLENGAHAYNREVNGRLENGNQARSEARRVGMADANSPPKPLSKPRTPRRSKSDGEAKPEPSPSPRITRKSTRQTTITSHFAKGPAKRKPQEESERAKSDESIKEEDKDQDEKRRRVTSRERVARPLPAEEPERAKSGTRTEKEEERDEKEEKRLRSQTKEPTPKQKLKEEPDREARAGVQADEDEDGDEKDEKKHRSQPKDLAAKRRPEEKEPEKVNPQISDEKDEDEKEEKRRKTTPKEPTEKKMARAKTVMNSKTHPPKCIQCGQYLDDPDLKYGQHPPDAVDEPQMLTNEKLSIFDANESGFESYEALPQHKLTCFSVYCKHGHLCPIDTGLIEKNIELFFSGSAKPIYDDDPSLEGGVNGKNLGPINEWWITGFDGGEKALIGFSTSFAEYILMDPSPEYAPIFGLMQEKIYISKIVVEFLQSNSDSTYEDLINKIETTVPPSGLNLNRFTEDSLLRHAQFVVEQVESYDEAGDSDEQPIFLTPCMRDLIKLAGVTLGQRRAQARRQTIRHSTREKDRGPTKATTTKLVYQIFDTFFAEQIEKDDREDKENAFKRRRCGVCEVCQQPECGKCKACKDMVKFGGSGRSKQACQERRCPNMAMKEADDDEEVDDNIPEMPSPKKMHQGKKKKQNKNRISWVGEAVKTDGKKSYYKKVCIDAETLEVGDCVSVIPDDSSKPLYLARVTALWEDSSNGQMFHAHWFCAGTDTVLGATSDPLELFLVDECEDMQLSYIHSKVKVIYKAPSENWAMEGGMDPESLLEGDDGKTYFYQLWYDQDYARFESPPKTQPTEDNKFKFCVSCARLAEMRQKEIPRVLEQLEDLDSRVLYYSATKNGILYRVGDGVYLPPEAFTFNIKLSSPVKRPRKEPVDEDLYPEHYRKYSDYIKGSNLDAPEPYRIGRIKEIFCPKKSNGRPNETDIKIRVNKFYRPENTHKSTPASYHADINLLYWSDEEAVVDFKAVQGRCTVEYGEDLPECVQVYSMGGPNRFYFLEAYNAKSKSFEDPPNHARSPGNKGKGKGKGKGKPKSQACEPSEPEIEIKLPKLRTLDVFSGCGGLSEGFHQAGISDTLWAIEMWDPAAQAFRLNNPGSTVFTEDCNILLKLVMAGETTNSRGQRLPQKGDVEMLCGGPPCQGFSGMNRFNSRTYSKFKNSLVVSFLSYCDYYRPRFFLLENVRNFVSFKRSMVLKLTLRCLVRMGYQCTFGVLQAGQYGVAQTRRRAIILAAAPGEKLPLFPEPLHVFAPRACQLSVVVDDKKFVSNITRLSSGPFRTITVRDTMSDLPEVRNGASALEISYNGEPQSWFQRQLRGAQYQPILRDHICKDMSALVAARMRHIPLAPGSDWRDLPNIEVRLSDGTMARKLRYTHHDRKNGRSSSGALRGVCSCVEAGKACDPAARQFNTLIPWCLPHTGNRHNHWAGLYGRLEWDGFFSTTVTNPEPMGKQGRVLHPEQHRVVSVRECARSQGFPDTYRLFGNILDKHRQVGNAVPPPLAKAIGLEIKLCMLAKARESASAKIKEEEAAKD

SMILES: O=C(N/N=C/c1ccoc1)c1cc(O)cc(O)c1
IC50 [1]: 1.55 µM (active)
IC50 [2]: 33.9 µM (inactive)
IC50 [3]: 12.4 µM (active)
IC50 (Albumin): > 94 µM (inactive)
IC50 [4]: > 66.6 µM (inactive)
IC50 [5]: 0.952 µM (active)
IC50 [6]: 7.09 µM (active)

SMILES: CC(C)c1ccc(NC(=O)C[C@H]2CC[C@H]3[C@@H](COc4ccc(NC(=O)Nc5ccc(F)c(F)c5)cc4C(=O)N3C)O2)cc1
AbsAC35 [7]: 91.94 µM
AC50 [8]: 14.3 µM (active)

AC50 (Caspase-6): 1.6 µM (active)
IC50 [9]: 39.9 µM (inactive)
AC50 (Caspase-7): > 70 µM (inactive)
SMILES: CCCCNC(=O)c1nc(C2CCNCC2)oc1-c1cccc(C(F)(F)F)c1

SMILES: Cc1ccc2ccc(C(Nc3ccccc3)c3ccccc3)c(O)c2n1 (configuration not stated)
AC50 (A549): 17.9 µM (active)

SMILES: O=C(C[C@@H]1CC[C@H]2[C@@H](COC[C@H](O)CN2C(=O)Nc2cccc(F)c2)O1)NCc1ccccc1F
AC50 [10]: > 52 µM (inactive)

SMILES: O=C(Nc1ccc(C(F)(F)F)cc1)Nc1ccc2c(c1)[C@@H]1C[C@H](CC(=O)N3CCc4ccccc4C3)O[C@@H](CO)[C@@H]1O2
AbsAC35 [11]: 85.24 µM

SMILES: CC(C)(C)OC(=O)Nc1nc2ccc(C(=O)Nc3ccnc(Cl)c3)cc2s1
CC50 [12]: > 300 µM (inactive)

SMILES: NC(=S)N/N=C/c1ccc(-c2cc(Cl)ccc2Cl)o1
AC50 (Cryptococcus neoformans [13]): 12.2 µM (active)
AC50 (HeLa): 17.6 µM (active)
EC50 [14]: 4.47 µM (active)
EC50 [15]: > 60 µM (not active)
AC50 (Cryptococcus neoformans [16]): 18.1 µM (active)
EC50 [17]: 15.4 µM (active)
EC50 [18]: 0.627 µM (active)

SMILES: CCc1nnc(NS(=O)(=O)c2ccc(/N=C/c3c(C)nn(-c4ccc(C)c(C)c4)c3O)cc2)s1
IC50 (Leucine aminopeptidase): 14.4 µM (active)
IC50 (cells): 70 µM (inactive)
IC50 [19]: 4.55 µM (active)
IC50 [20]: 16.5 µM (active)

Reference: ChEMBL document CHEMBL1201862, “PubChem BioAssay data set” (2004)
